Test results taken from ChEMBL document CHEMBL1201862, “PubChem BioAssay data set” (2004).
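Five concentrations, 48 hours, 96-well plates. GI50 = concentration required for 50% inhibition of growth.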 Calls of active or inactive are those of the source. Cut-off read from the data, not from the text of the source: active = GI50 up to about 1.1 µM and inactive = higher.

Legend:
Assay in all cases: inhibition of tumour cell growth, NCI panel, 48 h
786-0 = test system: 786-0
A498 = test system: A498
A549 = test system: A549
ACHN = test system: ACHN
CAKI-1 = test system: CAKI-1
CCRF-CEM = test system: CCRF-CEM
COLO 205 = test system: COLO 205
DLD-1 = test system: DLD-1
DMS-114 = test system: DMS-114
DMS-273 = test system: DMS-273
EKVX = test system: EKVX
HCC 2998 = test system: HCC 2998
HCT-116 = test system: HCT-116
HCT-15 = test system: HCT-15
HL-60 = test system: HL-60
HOP-18 = test system: HOP-18
HOP-62 = test system: HOP-62
HOP-92 = test system: HOP-92
HT-29 = test system: HT-29
IGROV-1 = test system: IGROV-1
K562 = test system: K562
KM-20L2 = test system: KM-20L2
KM12 = test system: KM12
LOX IMVI = test system: LOX IMVI
LXFL 529 = test system: LXFL 529
M14 = test system: M14
M19-MEL = test system: M19-MEL
MOLT-4 = test system: MOLT-4
Malme-3M = test system: Malme-3M
NCI-H226 = test system: NCI-H226
NCI-H23 = test system: NCI-H23
NCI-H460 = test system: NCI-H460
NCI-H522 = test system: NCI-H522
OVCAR-3 = test system: OVCAR-3
OVCAR-4 = test system: OVCAR-4
OVCAR-5 = test system: OVCAR-5
OVCAR-8 = test system: OVCAR-8
RXF 393 = test system: RXF 393
SF-268 = test system: SF-268
SF-295 = test system: SF-295
SF-539 = test system: SF-539
SK-MEL-28 = test system: SK-MEL-28
SK-MEL-2 = test system: SK-MEL-2
SK-MEL-5 = test system: SK-MEL-5
SK-OV-3 = test system: SK-OV-3
SN12C = test system: SN12C
SNB-19 = test system: SNB-19
SNB-75 = test system: SNB-75
SNB-78 = test system: SNB-78
SR = test system: SR
SW-620 = test system: SW-620
TK-10 = test system: TK-10
U-251 = test system: U-251
UACC-257 = test system: UACC-257
UACC-62 = test system: UACC-62
UO-31 = test system: UO-31
XF498 = test system: XF498

Question: How did the GI50 (786-0) turn out when `CC1NOC(=O)C1/N=N/c1cccc(Cl)c1` (configuration not stated) was run?
Answer: The GI50 was 30.2 µM (inactive).

Question: What about the GI50 (A498) of the same compound?
Answer: Its GI50 is 17.3 µM (inactive).

Question: What about the GI50 (A549) of the same compound?
Answer: The GI50 was 33.2 µM (inactive).

Question: What about the GI50 (ACHN) of the same compound?
Answer: Its GI50 is 40.9 µM (inactive).

Question: What about the GI50 (CAKI-1) of the same compound?
Answer: The GI50 was 38.6 µM (inactive).

Question: And the GI50 (CCRF-CEM)?
Answer: Its GI50 is 21.4 µM (inactive).

Question: What about the GI50 (COLO 205) of the same compound?
Answer: The GI50 was 20.5 µM (inactive).

Question: And the GI50 (DLD-1)?
Answer: The GI50 was 34.6 µM (inactive).

Question: And the GI50 (DMS-114)?
Answer: Its GI50 is 22.4 µM (inactive).

Question: And the GI50 (DMS-273)?
Answer: Its GI50 is 48.1 µM (inactive).

Question: What about the GI50 (EKVX) of the same compound?
Answer: The GI50 was 37.5 µM (inactive).

Question: And the GI50 (HCC 2998)?
Answer: The GI50 was > 100 µM (inactive).

Question: And the GI50 (HCT-116)?
Answer: The GI50 was 31.7 µM (inactive).

Question: And the GI50 (HCT-15)?
Answer: Its GI50 is 17.7 µM.

Question: And the GI50 (HL-60)?
Answer: The GI50 was 18.4 µM (inactive).

Question: What about the GI50 (HOP-18) of the same compound?
Answer: Its GI50 is 26.1 µM (inactive).

Question: What about the GI50 (HOP-62) of the same compound?
Answer: The GI50 was 51.3 µM (inactive).

Question: And the GI50 (HOP-92)?
Answer: Its GI50 is 26.4 µM (inactive).

Question: What about the GI50 (HT-29) of the same compound?
Answer: The GI50 was 27.4 µM (inactive).

Question: What about the GI50 (IGROV-1) of the same compound?
Answer: The GI50 was 40.8 µM (inactive).

Question: What about the GI50 (K562) of the same compound?
Answer: The GI50 was 25.6 µM (inactive).

Question: And the GI50 (KM-20L2)?
Answer: Its GI50 is 35.6 µM (inactive).

Question: What about the GI50 (KM12) of the same compound?
Answer: Its GI50 is 40.7 µM (inactive).

Question: And the GI50 (LOX IMVI)?
Answer: The GI50 was 28.8 µM (inactive).

Question: What about the GI50 (LXFL 529) of the same compound?
Answer: The GI50 was 27.9 µM (inactive).

Question: And the GI50 (M14)?
Answer: Its GI50 is 62.2 µM (inactive).

Question: What about the GI50 (M19-MEL) of the same compound?
Answer: Its GI50 is 30.3 µM (inactive).

Question: What about the GI50 (MOLT-4) of the same compound?
Answer: The GI50 was 24.5 µM (inactive).

Question: And the GI50 (Malme-3M)?
Answer: The GI50 was 29.7 µM (inactive).

Question: And the GI50 (NCI-H226)?
Answer: Its GI50 is 32.3 µM (inactive).

Question: What about the GI50 (NCI-H23) of the same compound?
Answer: The GI50 was 99.5 µM (inactive).

Question: And the GI50 (NCI-H460)?
Answer: Its GI50 is 31.2 µM (inactive).

Question: What about the GI50 (NCI-H522) of the same compound?
Answer: Its GI50 is 23.5 µM (inactive).

Question: What about the GI50 (OVCAR-3) of the same compound?
Answer: Its GI50 is 22.5 µM (inactive).

Question: What about the GI50 (OVCAR-4) of the same compound?
Answer: The GI50 was 32.9 µM (inactive).

Question: What about the GI50 (OVCAR-5) of the same compound?
Answer: Its GI50 is 47.5 µM (inactive).

Question: And the GI50 (OVCAR-8)?
Answer: Its GI50 is 44.8 µM (inactive).

Question: What about the GI50 (RXF 393) of the same compound?
Answer: Its GI50 is 22.8 µM (inactive).

Question: And the GI50 (SF-268)?
Answer: The GI50 was 23.1 µM (inactive).

Question: What about the GI50 (SF-295) of the same compound?
Answer: The GI50 was 34 µM (inactive).

Question: And the GI50 (SF-539)?
Answer: Its GI50 is 34.3 µM (inactive).

Question: What about the GI50 (SK-MEL-28) of the same compound?
Answer: Its GI50 is 43.9 µM (inactive).

Question: What about the GI50 (SK-MEL-2) of the same compound?
Answer: The GI50 was 16.5 µM (inactive).

Question: What about the GI50 (SK-MEL-5) of the same compound?
Answer: The GI50 was 19.9 µM (inactive).

Question: And the GI50 (SK-OV-3)?
Answer: Its GI50 is 28.8 µM (inactive).

Question: What about the GI50 (SN12C) of the same compound?
Answer: Its GI50 is 21.7 µM (inactive).

Question: And the GI50 (SNB-19)?
Answer: The GI50 was 37.7 µM (inactive).

Question: And the GI50 (SNB-75)?
Answer: The GI50 was 36.1 µM (inactive).

Question: What about the GI50 (SNB-78) of the same compound?
Answer: Its GI50 is 36.6 µM (inactive).

Question: And the GI50 (SR)?
Answer: Its GI50 is 21.2 µM (inactive).

Question: What about the GI50 (SW-620) of the same compound?
Answer: Its GI50 is 10 µM (inactive).

Question: What about the GI50 (TK-10) of the same compound?
Answer: Its GI50 is 42.8 µM (inactive).

Question: And the GI50 (U-251)?
Answer: Its GI50 is 25.2 µM (inactive).

Question: And the GI50 (UACC-257)?
Answer: The GI50 was 29 µM (inactive).

Question: What about the GI50 (UACC-62) of the same compound?
Answer: The GI50 was 34.6 µM (inactive).

Question: And the GI50 (UO-31)?
Answer: The GI50 was 35.6 µM (inactive).

Question: And the GI50 (XF498)?
Answer: The GI50 was 22.3 µM (inactive).
